Drawing on ChEMBL document CHEMBL5131397, “Discovery and Optimization of Pyrazole Amides as Inhibitors of ELOVL1” (J Med Chem, 2021), this text covers Activity and IC50 for four compounds.

A short description of test [1]: Reduction in C26:0 LPC level in ABCD1 (-/y) knock out mouse brain at 0.4 to 2 mg/kg, ip administered daily measured after 4.5 months by LC-MS/MS analysis. The format is functional. More on the design: scale not given: the % may be the effect or the level left. The note with it: dose 0.4-2 mg/kg, 3285 h.
The target of test [2] is T1, Very long chain fatty acid elongase 1 (Homo sapiens, UniProt Q9BW60).
T1 sequence (Q9BW60 whole entry): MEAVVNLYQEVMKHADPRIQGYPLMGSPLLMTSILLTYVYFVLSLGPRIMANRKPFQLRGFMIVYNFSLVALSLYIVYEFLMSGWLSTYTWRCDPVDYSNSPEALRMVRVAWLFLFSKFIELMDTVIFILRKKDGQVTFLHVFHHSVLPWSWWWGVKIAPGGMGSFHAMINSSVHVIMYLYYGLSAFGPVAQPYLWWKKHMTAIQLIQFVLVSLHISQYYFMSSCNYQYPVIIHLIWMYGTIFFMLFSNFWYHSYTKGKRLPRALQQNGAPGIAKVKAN
The test is described as follows: Inhibition of ELOVL1 (unknown origin) using C22-acyl-CoA as substrate by radiometric enzyme assay.

In test [3] the target is T2, Very long chain fatty acid elongase 6 (Homo sapiens, UniProt Q9H5J4).
T2 sequence (Q9H5J4 whole entry): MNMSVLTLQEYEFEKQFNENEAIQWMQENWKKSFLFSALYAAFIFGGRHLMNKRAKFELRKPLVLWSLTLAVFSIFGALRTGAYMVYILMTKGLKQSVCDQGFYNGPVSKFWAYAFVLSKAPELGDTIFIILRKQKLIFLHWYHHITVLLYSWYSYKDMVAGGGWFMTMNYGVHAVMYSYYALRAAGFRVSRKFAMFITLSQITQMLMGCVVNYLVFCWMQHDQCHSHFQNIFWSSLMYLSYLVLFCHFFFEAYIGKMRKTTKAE
The test is described as follows: Inhibition of ELOVL6 (unknown origin) using C16-acyl-CoA as substrate by radiometric enzyme assay.

The target of test [4] is T3, Very long chain fatty acid elongase 7 (Homo sapiens, UniProt A1L3X0).
T3 sequence (A1L3X0 whole entry): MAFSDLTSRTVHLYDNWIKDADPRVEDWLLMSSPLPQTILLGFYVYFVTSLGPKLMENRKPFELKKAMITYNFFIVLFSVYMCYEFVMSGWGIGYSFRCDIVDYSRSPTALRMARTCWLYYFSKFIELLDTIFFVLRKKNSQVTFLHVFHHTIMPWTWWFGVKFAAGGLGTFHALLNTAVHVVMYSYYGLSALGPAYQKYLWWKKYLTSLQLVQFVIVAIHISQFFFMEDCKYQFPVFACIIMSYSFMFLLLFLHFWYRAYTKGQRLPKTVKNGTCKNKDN
Kind of test: Inhibition of ELOVL7 (unknown origin) using C18-acyl-CoA as substrate by radiometric enzyme assay.

On to `Cc1cc(OCC(=O)O)cc(C)c1Cc1ccc(O)c(C(C)C)c1` [SOBETIROME], for which the Activity in test [1] is 21%.

Regarding `O=C(Nc1nc(-c2ccncc2)cs1)C1(c2ccccc2)CC1`, the IC50 (in general, the point on the concentration scale where inhibition reaches its midpoint) in test [2] was 1.8 µM; in test [3] it was over 100 µM; in test [4], over 100 µM.

`O=C(Cc1ccccc1F)Nc1nc(-c2ccnc(F)c2)cs1`: the IC50 was 4.4 µM in test [2], over 100 µM in test [3] and over 100 µM in test [4].

For the compound `O=C(Nc1nc(-c2ccccc2)cs1)C1CCCO1` (stereo not given), the figures for the IC50 in test [2], in test [3] and in test [4] were 30 µM, over 100 µM and over 100 µM, respectively.
